This is an account of results in patent publication US20260224589A1 (priority 2023, published 2026).

Like-named read-outs stand apart in the source and are kept apart here.

The assay concerns AsPC-1 cells. In words: phospho-ERK HTRF assay in AsPC-1 cells, 4 h treatment. It counts as cell-based. Particulars: Homo sapiens, ASPC1.
The mark [1] stands for this setting: AsPC-1, 4H, Table 1a class column, read-out: pERK IC50 activity range (*).
Where [2] appears, read: AsPC-1, 4H, Table 1a, read-out: PERK IC50 (AsPC-1, 4H).
Setting [3] is: AsPC-1, 4h, Table 1b, read-out: PERK IC50 (AsPC-1, 4h).

As for `CON(C)C(=O)c1nn2c(c1C)CN(c1nc(OC[C@@]34CCCN3C/C(=C\F)C4)nc3c1COC(c1cc(N)cc(Cl)c1C(F)(F)F)C3)CCC2` (stereo partly drawn) [compound 450, 5-(7-(5-amino-3-chloro-2-(trifluoromethyl)phenyl)-2-(((S,Z)-2-(fluoromethylene)tetrahydro-1H-pyrrolizin-7a(5H)-yl)methoxy)-7,8-dihydro-5H-pyrano[4,3-d]pyrimidin-4-yl)-N-methoxy-N,3-dimethyl-5,6,7,8-tetrahydro-4H-pyrazolo[1,5-a][1,4]diazepine-2-carboxamide], the IC50 under setting [1] was in the range of 10 to 30 nM. Consider `CN(C)C(=O)c1nn2c(c1Cl)CN(c1nc(OC[C@@]34CCCN3C[C@H](F)C4)nc3c1COC(c1c(C(F)(F)F)ccc(N)c1F)C3)CC1(COC1)C2` (stereo partly shown) [compound 222], for which the IC50 reads like this: under setting [1], more than 500 nM; under setting [2], more than 10000 nM. For the compound `CC#Cc1cc(N)cc([C@@H]2Cc3nc(OC[C@@]45CCCN4C/C(=C\F)C5)nc(N4CCCn5nc(C(=O)N6CCCC6)c(Cl)c5C4)c3CO2)c1C(F)(F)F` [compound 430], the IC50 under setting [3] is less than 10 nM. On the same count and under the same terms, the same measure for `CN(C)C(=O)c1nn2c(c1Cl)CN(c1nc(OC[C@]34CCCN3C[C@@H](C=C(F)F)C4)nc3c1CO[C@H](c1cc(N)cc(Cl)c1C(F)(F)F)C3)CCC2` [compound 456]: less than 10 nM.

As for `[2H]C([2H])([2H])N(C(=O)c1nn2c(c1Cl)CN(c1nc(OC[C@@]34CCCN3C[C@H](F)C4)nc3c1CO[C@@H](c1c(F)c(N)cc(Cl)c1C(F)(F)F)C3)CCC2)C([2H])([2H])[2H]` [250b], the IC50 under setting [1] was in the range of 10 to 30 nM. Same read-out and setting: the value for `CCc1c(C(=O)N(C)C)nn2c1CN(c1nc(OC[C@@]34CCCN3C[C@H](F)C4)nc3c1CO[C@H](c1cc(N)cc(Cl)c1C(F)(F)F)C3)CCC2` [compound 409] was 10 to 30 nM. Take `CN(C)C(=O)c1nn2c(c1Cl)CN(c1nc(OC[C@@]34CCCN3C[C@H](F)C4)nc3c1COC(c1c(C(F)(F)F)ccc(Br)c1F)C3)CC1(COC1)C2` (stereo partly shown) [compound 218]: the IC50 under setting [1] is more than 500 nM and the IC50 under setting [2] is more than 10000 nM. For `CN(C)C(=O)c1nn2c(c1Cl)CN(c1nc(OC[C@@]34CCCN3CC(=C(F)F)C4)nc3c1CO[C@@H](c1c(C(F)(F)F)ccc(N)c1F)C3)CCC2` [231b, 5-((R)-7-(3-amino-2-fluoro-6-(trifluoromethyl)phenyl)-2-(((S)-2-(difluoromethylene)tetrahydro-1H-pyrrolizin-7a(5H)-yl)methoxy)-7,8-dihydro-5H-pyrano[4,3-d]pyrimidin-4-yl)-3-chloro-N,N-dimethyl-5,6,7,8-tetrahydro-4H-pyrazolo[1,5-a][1,4]diazepine-2-carboxamide] the same measures were more than 500 nM and more than 10000 nM.

For `CN(C)C(=O)c1nn2c(c1Cl)CN(c1nc(OC[C@@]34CCCN3C[C@H](F)C4)nc3c1CO[C@H](c1c(C(F)(F)F)cc(F)c(N)c1F)C3)CCC2` [216a, 5-((S)-7-(3-amino-2,4-difluoro-6-(trifluoromethyl)phenyl)-2-(((2R,7aS)-2-fluorotetrahydro-1H-pyrrolizin-7a(5H)-yl)methoxy)-7,8-dihydro-5H-pyrano[4,3-d]pyrimidin-4-yl)-3-chloro-N,N-dimethyl-5,6,7,8-tetrahydro-4H-pyrazolo[1,5-a][1,4]diazepine-2-carboxamide], the IC50 runs as follows: under setting [1], 31 to 100 nM; under setting [2], 49 nM. In the case of `CN(C)C(=O)c1nn2c(c1Cl)CN(c1nc(OC[C@@]34CCCN3C/C(=C\F)C4)nc3c1CO[C@H](c1cc(N)cc(F)c1C(F)(F)F)C3)CCC2` [compound 410], under setting [3], the IC50 is less than 10 nM. For the compound `CON(C)C(=O)c1nn2c(c1Cl)CN(c1nc(OC[C@@]34CCCN3C[C@H](F)C4)nc3c1COC(c1cc(N)cc(Cl)c1C(F)(F)F)C3)CCC2` (stereo partly shown) [compound 452], the concentration for half-maximal inhibition (IC50) under setting [1] lay in the range of 10 to 30 nM.

For `CN1CCOc2c(nn3c2CN(c2nc(OC[C@@]45CCCN4C[C@H](F)C5)nc4c2CO[C@@H](c2c(C(F)(F)F)ccc(N)c2F)C4)CCC3)C1=O` [212b], the IC50 runs as follows: under setting [1], more than 500 nM; under setting [2], more than 10000 nM. For `CN(C)C(=O)c1nn2c(c1Cl)CN(c1nc(OC[C@@]34CCCN3C/C(=C\F)C4)nc3c1COC(c1cc(N)cc(F)c1C(F)(F)F)C3)CCC2` (stereo partly shown) [compound 246], in that order: 10 to 30 nM and 15.9 nM. For `CN(C)C(=O)c1nn2c(c1Cl)CN(c1nc(OC[C@@]34CCCN3CC(=C(F)F)C4)nc3c1CO[C@H](c1c(C(F)(F)F)ccc(N)c1F)C3)CCC2` [231a, 5-((S)-7-(3-amino-2-fluoro-6-(trifluoromethyl)phenyl)-2-(((S)-2-(difluoromethylene)tetrahydro-1H-pyrrolizin-7a(5H)-yl)methoxy)-7,8-dihydro-5H-pyrano[4,3-d]pyrimidin-4-yl)-3-chloro-N,N-dimethyl-5,6,7,8-tetrahydro-4H-pyrazolo[1,5-a][1,4]diazepine-2-carboxamide] the same measures were 31 to 100 nM and 32 nM. On to `CN(C)C(=O)c1nn2c(c1Cl)CN(c1nc(OC[C@@]34CCCN3C[C@H](F)C4)nc3c1CO[C@@H](c1c(F)c(N)cc(Cl)c1C(F)(F)F)C3)CCC2` [213b], for which the concentration for half-maximal inhibition (IC50) by setting is: under setting [1], 101 to 500 nM; under setting [2], 320 nM. On to `CCc1c(C(=O)N(C)C)nn2c1CN(c1nc(OC[C@@]34CCCN3C/C(=C\F)C4)nc3c1CO[C@H](c1cc(N)cc(Cl)c1C(F)(F)F)C3)CCC2` [compound 425], for which the IC50 under setting [3] is less than 10 nM. For the compound `CN(C)C(=O)c1nn2c(c1Cl)CN(c1nc(OC[C@]34CCCN3C[C@@H](C=C(F)F)C4)nc3c1COC(c1c(F)c(N)cc(Cl)c1C(F)(F)F)C3)CCC2` (stereo partly shown) [compound 460], the IC50 under setting [3] is less than 10 nM. Turning to `CC#Cc1cc(N)c(F)c([C@@H]2Cc3nc(OC[C@@]45CCCN4C[C@H](F)C5)nc(N4CCCn5nc(C(=O)N(C)C)c(C)c5C4)c3CO2)c1C(F)(F)F` [compound 444], the IC50 under setting [3] is less than 10 nM. On the same count and under the same terms, the same measure for `CN(C)C(=O)c1nn2c(c1Cl)CN(c1nc(OC[C@@]34CCCN3C/C(=C\F)C4)nc3c1COC(c1cc(N)cc(Cl)c1C1CC1)C3)CCC2` (stereo partly shown) [compound 438]: less than 10 nM. In the case of `Cn1cc2c(n1)CCCN(c1nc(OC[C@@]34CCCN3C[C@H](F)C4)nc3c1COC(c1c(C(F)(F)F)ccc(N)c1F)C3)C2` (stereo partly shown) [compound 229], the 50% inhibitory concentration (IC50) reads like this: under setting [1], more than 500 nM; under setting [2], more than 10000 nM. In the case of `CN(C)C(=O)c1nn2c(c1Cl)CN(c1nc(OC[C@@]34CCCN3C/C(=C\F)C4)nc3c1CO[C@H](c1c(F)c(N)cc(Cl)c1Cl)C3)CCC2` [compound 436], the IC50 under setting [3] is less than 10 nM. The same measure, in the same setting: the same measure for `CON(C)C(=O)c1nn2c(c1Cl)CN(c1nc(OC[C@@]34CCCN3C[C@H](F)C4)nc3c1CO[C@H](c1cc(N)cc(Cl)c1C(F)(F)F)C3)CCC2` [compound 448]: less than 10 nM.

As for `CN(C)C(=O)c1nn2c(c1Cl)CN(c1nc(OC[C@@]34CCCN3C[C@H](F)C4)nc3c1CO[C@@H](c1c(C(F)(F)F)cc(F)c(N)c1F)C3)CCC2` [216b], the IC50 runs as follows: under setting [1], more than 500 nM; under setting [2], more than 10000 nM. On to `Cc1cc(N)cc([C@@H]2Cc3nc(OC[C@@]45CCCN4C/C(=C\F)C5)nc(N4CCCn5nc(C(=O)N(C)C)cc5C4)c3CO2)c1C(F)(F)F` [compound 302, 5-((S)-7-(5-amino-3-methyl-2-(trifluoromethyl)phenyl)-2-(((S,Z)-2-(fluoromethylene)tetrahydro-1H-pyrrolizin-7a(5H)-yl)methoxy)-7,8-dihydro-5H-pyrano[4,3-d]pyrimidin-4-yl)-N,N-dimethyl-5,6,7,8-tetrahydro-4H-pyrazolo[1,5-a][1,4]diazepine-2-carboxamide], for which, under setting [3], the 50% inhibitory concentration (IC50) was less than 10 nM.
